From ChEMBL document CHEMBL1250554, “Design and preparation of sterol mimetics as potential antiparasitics” (Bioorg Med Chem, 2010)

Tested on: not listed separately
Assay: Cytotoxicity against rat L6 cells
Type: cell-based
Conditions: read-out: TD50 (the source's name)

Structure (SMILES)	CC50 [µM]
COC(=O)CCCNCCc1ccc(NC(=O)c2ccc(COC(C)=O)cc2)cc1	> 218
COC(=O)CCCNCc1ccc(NC(=O)c2ccc(COC(C)=O)cc2)cc1	161
CC(=O)OCc1ccc(NC(=O)N2CCC(CO)C2)cc1 (centres undefined)	> 308
COC(=O)CCCNCC1CCN(C(=O)Nc2ccc(COC(C)=O)cc2)C1 (centres undefined)	> 230
CC(=O)OCc1ccc(NC(=O)N2CCC(CN3CCCC3=O)C2)cc1 (centres undefined)	> 250
COC(=O)CCCCCNCC1CCN(C(=O)Nc2ccc(COC(C)=O)cc2)C1 (centres undefined)	> 214

Tested on: Leishmania donovani
Assay: Antiparasitic activity against axenic amastigotes of Leishmania donovani
Type: functional, organism-based
Conditions: not given

EC50 [µM]	Structure (SMILES)
73	COC(=O)CCCNCCc1ccc(NC(=O)c2ccc(COC(C)=O)cc2)cc1
2.6	COC(=O)CCCNCc1ccc(NC(=O)c2ccc(COC(C)=O)cc2)cc1
26	CC(=O)OCc1ccc(NC(=O)N2CCC(CO)C2)cc1 (centres undefined)
80	COC(=O)CCCNCC1CCN(C(=O)Nc2ccc(COC(C)=O)cc2)C1 (centres undefined)
30	CC(=O)OCc1ccc(NC(=O)N2CCC(CN3CCCC3=O)C2)cc1 (centres undefined)
41	COC(=O)CCCCCNCC1CCN(C(=O)Nc2ccc(COC(C)=O)cc2)C1 (centres undefined)

Tested on: Trypanosoma cruzi
Assay: Antiparasitic activity against amastigotes of Trypanosoma cruzi
Type: functional, organism-based
Conditions: not given

EC50 [µM]	Structure (SMILES)
141	COC(=O)CCCNCCc1ccc(NC(=O)c2ccc(COC(C)=O)cc2)cc1
207	COC(=O)CCCNCc1ccc(NC(=O)c2ccc(COC(C)=O)cc2)cc1
> 308	CC(=O)OCc1ccc(NC(=O)N2CCC(CO)C2)cc1 (centres undefined)
> 230	COC(=O)CCCNCC1CCN(C(=O)Nc2ccc(COC(C)=O)cc2)C1 (centres undefined)
181	CC(=O)OCc1ccc(NC(=O)N2CCC(CN3CCCC3=O)C2)cc1 (centres undefined)
> 215	COC(=O)CCCCCNCC1CCN(C(=O)Nc2ccc(COC(C)=O)cc2)C1 (centres undefined)

Tested on: Trypanosoma brucei rhodesiense
Assay: Antiparasitic activity against blood stream form of Trypanosoma brucei rhodesiense
Type: functional, organism-based
Conditions: not given

EC50 [µM]	Structure (SMILES)
11.5	COC(=O)CCCNCCc1ccc(NC(=O)c2ccc(COC(C)=O)cc2)cc1
78	COC(=O)CCCNCc1ccc(NC(=O)c2ccc(COC(C)=O)cc2)cc1
52	CC(=O)OCc1ccc(NC(=O)N2CCC(CO)C2)cc1 (centres undefined)
40	COC(=O)CCCNCC1CCN(C(=O)Nc2ccc(COC(C)=O)cc2)C1 (centres undefined)
43	CC(=O)OCc1ccc(NC(=O)N2CCC(CN3CCCC3=O)C2)cc1 (centres undefined)
76	COC(=O)CCCCCNCC1CCN(C(=O)Nc2ccc(COC(C)=O)cc2)C1 (centres undefined)
